Measurements: patent publication US11220524B2, “Selective inhibitors of protein arginine methyltransferase 5 (PRMT5)” (PRELUDE THERAPEUTICS, INCORPORATED, priority 2017, dated 2022)
Structures can show the parent of a compound that is named as a salt.

Legend:
[1] = test system: Symmetric Di-Methyl Arginine (sDMA) in Granta-519 cells; assay: Western blot for symmetric di-methyl arginine (sDMA) marks in Granta cells, 3 days treatment; type: cell-based; conditions: Homo sapiens; for IC50: 72 h, Granta-519 cell line, 3 days; for inhibition at 1 µM: Granta-519
Description: Cell Treatment and Western Blotting for Detecting Symmetric Di-Methyl Arginine (sDMA) and Histone H3R8 Dimethyl Symmetric (H3R8me2s) Marks
Initial compounds screening in A549 cells: Compounds were dissolved in DMSO to make 10 mM stock and further diluted to 0.1, and 1 mM. A549 cells were maintained in PRMI 1640 (Corning Cellgro, Catalog #: 10-040-CV) medium supplemented with 10% v/v FBS (GE Healthcare, Catalog #: SH30910.03). One day before experiment, 1.25×10^5 cells were seeded in 6 well plate in 3 mL medium and incubated overnight. The next day, medium was changed and 3 uL of compound solution was added (1:1,000 dilution, 0.1 and 1 uM final concentration; DMSO concentration: 0.1%), and incubated for 3 days. Cells incubated with DMSO was used as a vehicle control. Cells were washed once with PBS, trypsinized in 150 uL 0.25% Trypsin (Corning, Catalog #: 25-053-CI), neutralized with 1 mL complete medium, transferred to microcentrifuge tubes and collected. Cell pellet was then resuspended in 15 uL PBS, lysed in 4% SDS, and homogenized by passing through homogenizer column (Omega Biotek, Catalog #: HCR003). Total protein concentrations were determined by BCA assay (ThermoFisher Scientific, Catalog #: 23225). Lysates were mixed with 5× Laemmli buffer and boiled for 5 min. Forty ug of total protein was separated on SDS-PAGE gels (Bio-Rad, catalog #: 4568083, 4568043), transferred to PVDF membrane, blocked with 5% dry milk (Bio-Rad, Catalog #: 1706404) in TBS with 0.1% v/v Tween 20 (TBST) for 1 hour at room temperature (RT), and incubated with primary antibodies (sDMA: Cell signaling, Catalog #: 13222, 1:3,000; H3R8me2s: Epigentek, Catalog #: A-3706-100, 1:2,000; β-Actin: Abcam, Catalog #: ab8227, 1:10,000) in 5% dry milk in TBST at 4° C. for overnight. The next day, membranes were washed with TBST, 5×5 min, and incubated withhP conjugated seconded antibody (GE Healthcare; Catalog #: NA934-1ML; 1:5,000) for 2 hours at RT, followed by 5×5 min washes with TBST, and incubation with ECL substrates (Bio-Rad, Catalog #: 1705061, 1705062). Chemiluminescent signal was captured with FluoChem HD2 imager (Proteinsimple) and analyzed by ImageJ.
Cells incubated with DMSO was used as a vehicle control. Cells were harvested and subjected to western blot analysis as described above. SmD3me2s and H3R8me2s bands were quantified by ImageJ. Signals were normalized to β-Actin and DMSO control. IC50 values were calculated using Graphpad Prism.

PRMT5/MEP50 complex = PRMT5/MEP50 complex (Homo sapiens (Human), UniProt O14744); assay: Biochemical assay: PRMT5/MEP50 methylation of histone H2A with 3H-SAM, filter plate scintillation; conditions: histone H2A 5 μM, SAM 1 μM, enzyme 5 nM; read-out: PRMT5/MEP50 IC50
Chain of PRMT5/MEP50 complex (O14744 whole entry): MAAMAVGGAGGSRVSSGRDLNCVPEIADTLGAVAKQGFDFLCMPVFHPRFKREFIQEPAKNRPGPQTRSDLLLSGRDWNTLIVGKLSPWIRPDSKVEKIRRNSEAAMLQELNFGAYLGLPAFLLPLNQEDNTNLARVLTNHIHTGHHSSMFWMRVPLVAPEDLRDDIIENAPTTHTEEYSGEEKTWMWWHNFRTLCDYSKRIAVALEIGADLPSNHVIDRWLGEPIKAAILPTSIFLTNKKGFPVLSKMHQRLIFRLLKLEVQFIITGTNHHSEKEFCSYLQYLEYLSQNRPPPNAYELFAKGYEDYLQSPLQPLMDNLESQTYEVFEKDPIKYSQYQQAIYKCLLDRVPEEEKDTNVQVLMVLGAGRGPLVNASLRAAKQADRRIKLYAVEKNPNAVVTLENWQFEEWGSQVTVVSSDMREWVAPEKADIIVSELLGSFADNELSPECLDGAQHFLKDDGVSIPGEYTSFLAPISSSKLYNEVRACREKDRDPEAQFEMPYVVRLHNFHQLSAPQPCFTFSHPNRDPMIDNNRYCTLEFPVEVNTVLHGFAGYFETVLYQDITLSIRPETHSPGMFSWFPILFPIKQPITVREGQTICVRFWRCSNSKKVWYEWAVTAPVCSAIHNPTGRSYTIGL
Chain of PRMT5/MEP50 complex (Q9BQA1 whole entry partner): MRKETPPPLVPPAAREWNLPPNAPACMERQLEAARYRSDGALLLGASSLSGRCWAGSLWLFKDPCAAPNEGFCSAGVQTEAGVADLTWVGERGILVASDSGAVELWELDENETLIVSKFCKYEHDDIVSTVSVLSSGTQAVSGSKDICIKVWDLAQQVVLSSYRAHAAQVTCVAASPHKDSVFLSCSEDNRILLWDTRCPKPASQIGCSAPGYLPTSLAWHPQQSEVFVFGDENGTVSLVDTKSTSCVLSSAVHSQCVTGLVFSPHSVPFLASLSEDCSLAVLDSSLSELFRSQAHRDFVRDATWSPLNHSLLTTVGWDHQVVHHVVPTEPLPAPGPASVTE
Description: Biochemical Assay Protocol
Compounds were solubilized, and 3-fold diluted in 100% DMSO. […] Standard reactions were performed in a total volume of […] assay buffer, with histone H2A (5 μM final) as substrate. To this was added the PRMT5/MEP50 complex diluted to provide a final assay concentration of 5 nM and the compounds were allowed to preincubate for 15 to 20 minutes at room temperature. The reaction was initiated by adding S-[3H-methyl]-adenosyl-L-methionine (PerkinElmer) to final concentration of 1 μM. Following a 60 minutes incubation at 30° C., the reaction was stopped by adding 100 μL of 20% TCA. Each reaction was spotted onto filter plate (MultiScreen FB Filter Plate, Millipore), and washed 5 times with PBS buffer, Scintillation fluid was added to the filter plate and read in a scintillation counter. IC50 values were determined by fitting the data to the standard 4 parameters with Hill Slope using GraphPad Prism software.

| SMILES | IC50 [1] [nM] | IC50 (PRMT5/MEP50 complex) [nM] | inhibition at 1 µM [1] [%] |
| --- | --- | --- | --- |
| CO/N=c1\nc[nH]c2c1ccn2[C@@H]1O[C@H]([C@H](O)c2ccc(C(F)(F)F)c(C)c2)[C@@H](O)[C@H]1O [Example 98, 7-((2R,3R,4S,5R)-3,4-dihydroxy-5-((R)-hydroxy(3-methyl-4-(trifluoromethyl)phenyl)methyl)tetrahydrofuran-2-yl)-1,7-dihydro-4H-pyrrolo[2,3-d]pyrimidin-4-one O-methyl oxime] | 9 | 8.4 |  |
| CO/N=c1\nc[nH]c2c1ccn2[C@@H]1O[C@H]([C@H](OC)c2ccc(Cl)c(F)c2)[C@@H](O)[C@H]1O [Example 102, 7-((2R,3R,4S,5S)-5-((R)-(4-chloro-3-fluorophenyl)(methoxy)methyl)-3,4-dihydroxytetrahydrofuran-2-yl)-1,7-dihydro-4H-pyrrolo[2,3-d]pyrimidin-4-one O-methyl oxime] | 3360 | 436 |  |
| CN/N=c1/nc[nH]c2c1ncn2[C@@H]1O[C@H]([C@H](O)c2ccc(Cl)cc2)[C@@H](O)[C@H]1O [compound 52, (2R,3S,4R,5R)-2-[(R)-(4-chlorophenyl)-hydroxy-methyl]-5-[6-(methylhydrazono)-3H-purin-9-yl]tetrahydrofuran-3,4-diol; 2,2,2-trifluoroacetic Acid] |  | 188 | 39 |
| O/N=c1/nc[nH]c2c1ncn2[C@@H]1O[C@H]([C@H](O)c2ccc(Cl)cc2)[C@@H](O)[C@H]1O [compound 54, 9-[(2R,3R,4S,5R)-5-[(R)-(4-chlorophenyl)-hydroxy-methyl]-3,4-dihydroxy-tetrahydrofuran-2-yl]-3H-purin-6-one oxime trifluoroacetic Acid Salt] |  | 25.6 | 55 |
| C[C@@](O)(c1ccc(Cl)cc1)[C@H]1O[C@@H](n2ccc3/c(=N/O)nc[nH]c32)[C@H](O)[C@@H]1O [compound 59, 7-((2R,3R,4S)-5-((R)-1-(4-chlorophenyl)-1-hydroxyethyl)-3,4-dihydroxytetrahydrofuran-2-yl)-1,7-dihydro-4H-pyrrolo[2,3-d]pyrimidin-4-one oxime hydrochloride] | 45 | 2.8 |  |
| CO/N=c1\nc[nH]c2c1ccn2[C@@H]1O[C@H]([C@](C)(O)c2ccc(Cl)cc2)[C@@H](O)[C@H]1O [compound 60, 7-((2R,3R,4S)-5-((R)-1-(4-chlorophenyl)-1-hydroxyethyl)-3,4-dihydroxytetrahydrofuran-2-yl)-1,7-dihydro-4H-pyrrolo[2,3-d]pyrimidin-4-one O-methyl oxime] | 438 | 37.7 |  |
| O/N=c1/nc[nH]c2c1ccn2[C@@H]1O[C@H]([C@H](O)c2ccc(Cl)c(F)c2)[C@@H](O)[C@H]1O [compound 63, 7-((2R,3R,4S,5R)-5-((R)-(4-chloro-3-fluorophenyl)(hydroxy)methyl)-3,4-dihydroxytetrahydrofuran-2-yl)-1,7-dihydro-4H-pyrrolo[2,3-d]pyrimidin-4-one oxime] | 10.8 | 0.7 |  |
| CN/N=c1\nc[nH]c2c1ccn2[C@@H]1O[C@H]([C@H](O)c2ccc(Cl)cc2)[C@@H](O)[C@H]1O [compound 64, (2R,3S,4R,5R)-2-[(R)-(4-chlorophenyl)-hydroxy-methyl]-5-[4-(methylhydrazono)-1H-pyrrolo[2,3-d]pyrimidin-7-yl]tetrahydrofuran-3,4-diol hydrochloride] | 93 | 8.3 |  |
| O/N=c1/nc[nH]c2c1ccn2[C@@H]1O[C@H]([C@H](O)c2ccc(F)c(Cl)c2)[C@@H](O)[C@H]1O [compound 65, 7-((2R,3R,4S,5R)-5-((R)-(3-chloro-4-fluorophenyl)(hydroxy)methyl)-3,4-dihydroxytetrahydrofuran-2-yl)-1,7-dihydro-4H-pyrrolo[2,3-d]pyrimidin-4-one oxime] | 16 | 1.9 |  |
